Measurements reported in patent publication US10844017B2, “Biaryl compound, preparation method and use thereof” (FUDAN UNIVERSITY, priority 2017, dated 2020).

Target: T1, RORγ receptor (B-RORγ LBD / Bioin-SRC1) (Homo sapiens, UniProt P51449)
T1 construct: 40 nM B-RORγ LBD solution
T1 sequence (P51449 269-508 limits assumed): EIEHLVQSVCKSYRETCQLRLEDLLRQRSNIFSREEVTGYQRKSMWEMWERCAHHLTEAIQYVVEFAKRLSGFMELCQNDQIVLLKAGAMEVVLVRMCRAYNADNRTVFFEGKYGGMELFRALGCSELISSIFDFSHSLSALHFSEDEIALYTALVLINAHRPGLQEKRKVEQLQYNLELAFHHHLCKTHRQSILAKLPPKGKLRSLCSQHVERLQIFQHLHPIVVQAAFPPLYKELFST
T1 sequence (Q15788 676-700 partner limits assumed): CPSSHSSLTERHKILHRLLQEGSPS
Experiment: Determination of agonistic activities on RORγ receptors in vitro (dual FRET)
Format: biochemical
Details: average of at least two independent experiments
Procedure: Determination of Agonistic Activities of Compounds on RORγ Receptors In Vitro The agonistic activities of compounds described herein on RORγ receptor were determined by dual fluorescence resonance energy transfer (dual FRET) experiments. The agonistic activity was expressed by half maximum effect concentration (EC50).
1) Preparation of RORγ Assay Buffer
100 mL of buffer solution was well mixed with […] DTT for use.
2) Preparation of Solutions of Compounds
3) Preparation of protein mixtures a) 40 nM B-RORγ LBD solution was mixed well with 20 nM SA-APC solution and incubated for 15 minutes at room temperature. Then the resulting mixture was further mixed well with 400 nM Biotin and incubated for another 10 minutes at room temperature. […]
b) 40 nM Bioin-SRC1 solution was mixed well with 10 nM SA-eu solution and was incubated for 15 minutes at room temperature. Then the resulting mixture was further mixed well with 200 nM Biotin and was incubated for another 10 minutes at room temperature. […]
d) A mixture (25 μL) of B-RORγ LBD/SA-APC and Bioin-SRC1/SA-eu together with a test compound was added to one of the wells of a 384-well plate, and then the plate was centrifuged for one minute at 1000 rpm, and incubated at room temperature for one hour. The data were read on an Envision microplate detector and EC50 values were calculated.

EC50 [nM]	Structure (SMILES)
10 to 50	CC(C)Cc1ccc(-c2c(Cl)cc(NC(=O)NCc3ccc(S(C)(=O)=O)cn3)cc2Cl)cc1C#N [Example 56, 1-(2,6-Dichloro-3′-cyano-4′-isobutyl-[1,1′-biphenyl]-4-yl)-3-((5-(methylsulfonyl)pyridin-2-yl)methyl)urea]
10 to 50	CCS(=O)(=O)c1ccc(CC(=O)Nc2cc(Cl)c(-c3ccc(CN4CCCC4)c(C#N)c3)c(Cl)c2)cc1 [Example 39, N-(2,6-Dichloro-3′-cyano-4′-(pyrrolidin-1-ylmethyl)-[1,1′-biphenyl]-4-yl)-2-(4-(ethylsulfonyl)phenyl)acetamide]
10 to 50	CNS(=O)(=O)c1ccc(CC(=O)Nc2cc(Cl)c(-c3ccc(CC(C)C)c(C#N)c3)c(Cl)c2)cc1 [Example 22, N-(2,6-Dichloro-3′-cyano-4′-isobutyl-[1,1′-biphenyl]-4-yl)-2-(4-(N-methylsulfamoyl)phenyl)acetamide]
10 to 50	CCS(=O)(=O)c1ccc(CC(=O)Nc2ccc(-c3ccc(CC(C)C)cc3C(F)(F)F)c(Cl)c2)cc1 [Example 29, N-(2-chloro-4′-isobutyl-2′-(trifluoromethyl)-[1,1′-biphenyl]-4-yl)-2-(4-(ethylsulfonyl)phenyl)acetamide]
10 to 50	CCS(=O)(=O)c1ccc(CC(=O)Nc2cc(Cl)c(-c3ccc(CC(C)C)c(F)c3)c(Cl)c2)cc1 [Example 27, N-(2,6-Dichloro-3′-fluoro-4′-isobutyl-[1,1′-biphenyl]-4-yl)-2-(4-(ethylsulfonyl)phenyl)acetamide]
> 1000	CCS(=O)(=O)c1ccc(CC(=O)Nc2cc(Cl)c(-c3ccc(CN4CCC4)c(C#N)c3)c(Cl)c2)cc1 [Example 38, N-(4′-(Azetidin-1-ylmethyl)-2,6-dichloro-3′-cyano-[1,1′-biphenyl]-4-yl)-2-(4-(ethylsulfonyl)phenyl)acetamide]
10 to 50	CCS(=O)(=O)c1ccc(CC(=O)Nc2cc(Cl)c(-c3ccc(CC4CCCC4)c(C#N)c3)c(Cl)c2)cc1 [Example 45, N-(2,6-Dichloro-3′-cyano-4′-(cyclopentylmethyl)-[1,1′-biphenyl]-4-yl)-2-(4-(ethylsulfonyl)phenyl)acetamide]
500 to 1000	CN(C)Cc1ccc(-c2c(Cl)cc(C(=O)NCc3ccc(S(C)(=O)=O)cc3)cc2Cl)cc1C#N [Example 52, 2,6-Dichloro-3′-cyano-4′-((dimethylamino)methyl)-N-(4-(methylsulfonyl)benzyl)-[1,1′-biphenyl]-4-carboxamide]
10 to 50	CN(C)Cc1ccc(-c2c(Cl)cc(NC(=O)NCc3ccc(S(C)(=O)=O)cc3)cc2Cl)cc1C#N [Example 59, 1-(2,6-Dichloro-3′-cyano-4′-((dimethylamino)methyl)-[1,1′-biphenyl]-4-yl)-3-(4-(methylsulfonyl)benzyl)urea]
< 10	CN(C)Cc1ccc(-c2c(Cl)cc(NCCc3ccc(S(C)(=O)=O)cc3)cc2Cl)cc1C#N [Example 63, 2′,6′-Dichloro-4-((dimethylamino)methyl)-4′-((4-(methylsulfonyl)phenethyl)amino)-[1,1′-biphenyl]-3-carbonitrile]
10 to 50	CC(C)Cc1ccc(-c2c(Cl)cc(NC(=O)NCc3ccc(CC(=O)O)cc3)cc2Cl)cc1C#N [Example 57, 2-(4-((3-(2,6-Dichloro-3′-cyano-4′-isobutyl-[1,1′-biphenyl]-4-yl)ureido)methyl)phenyl)acetic acid]
10 to 50	CC(C)Cc1ccc(-c2c(Cl)cc(NC(=O)Cc3ccccc3)cc2Cl)cc1C#N [Example 7, N-(2,6-Dichloro-3′-cyano-4′-isobutyl-[1,1′-biphenyl]-4-yl)-2-phenylacetamide]
10 to 50	CC(C)Cc1ccc(-c2c(Cl)cc(NC(=O)Cc3cccc(S(C)(=O)=O)c3)cc2Cl)cc1C#N [Example 18, N-(2,6-Dichloro-3′-cyano-4′-isobutyl-[1,1′-biphenyl]-4-yl)-2-(3-(methylsulfonyl)phenyl)acetamide]
50 to 100	CC(C)Cc1ccc(-c2c(Cl)cc(C(=O)NCc3ccc(S(C)(=O)=O)cn3)cc2Cl)cc1C#N [Example 50, 2,6-Dichloro-3′-cyano-4′-isobutyl-N-((5-(methylsulfonyl)pyridin-2-yl)methyl)-[1,1′-biphenyl]-4-carboxamide]
10 to 50	CC(C)Cc1ccc(-c2c(Cl)cc(NC(=O)Cc3ccncc3)cc2Cl)cc1C#N [Example 15, N-(2,6-Dichloro-3′-cyano-4′-isobutyl-[1,1′-biphenyl]-4-yl)-2-(pyridin-4-yl)acetamide]
< 10	CCS(=O)(=O)c1ccc(CC(=O)Nc2ccc(-c3ccc(CC(C)C)c(C#N)c3)c(Cl)c2)cc1 [Example 31, N-(2-Chloro-3′-cyano-4′-isobutyl-[1,1′-biphenyl]-4-yl)-2-(4-(ethylsulfonyl)phenyl)acetamide]

EC50 [nM]	Structure (SMILES)
10 to 50	CC(C)Cc1ccc(-c2c(Cl)cc(NC(=O)NCc3ccc(S(C)(=O)=O)cc3)cc2Cl)cc1C#N [Example 54, 1-(2,6-Dichloro-3′-cyano-4′-isobutyl-[1,1′-biphenyl]-4-yl)-3-(4-(methylsulfonyl)benzyl)urea]
10 to 50	CCS(=O)(=O)c1ccc(CC(=O)Nc2cc(Cl)c(-c3ccc(C=C4CCC4)c(C#N)c3)c(Cl)c2)cc1 [Example 44, N-(2,6-Dichloro-3′-cyano-4′-(cyclobutylidenemethyl)-[1,1′-biphenyl]-4-yl)-2-(4-(ethylsulfonyl)phenyl)acetamide]
10 to 50	CC(C)Cc1ccc(-c2c(Cl)cc(NC(=O)Cc3cccc(C#N)c3)cc2Cl)cc1C#N [Example 12, 2-(3-cyanophenyl)-N-(2,6-dichloro-3′-cyano-4′-isobutyl-[1,1′-biphenyl]-4-yl)acetamide]
100 to 500	CCS(=O)(=O)c1ccc(CNC(=O)c2cc(Cl)c(-c3ccc(CN(C)C)c(C#N)c3)c(Cl)c2)cc1 [Example 51, 2,6-Dichloro-3′-cyano-4′-((dimethylamino)methyl)-N-(4-(ethylsulfonyl)benzyl)-[1,1′-biphenyl]-4-carboxamide]
10 to 50	CCC(=O)Nc1cc(Cl)c(-c2ccc(CC(C)C)c(C#N)c2)c(Cl)c1 [Example 1, N-(2,6-Dichloro-3′-cyano-4′-isobutyl-[1,1′-biphenyl]-4-yl)propionamide]
10 to 50	CC(C)Cc1ccc(-c2c(Cl)cc(NC(=O)Cc3ccnn3C)cc2Cl)cc1C#N [Example 9B, N-(2,6-dichloro-3′-cyano-4′-isobutyl-[1,1′-biphenyl]-4-yl)-2-(1-methyl-1H-pyrazol-5-yl)acetamide]
< 10	CC(C)Cc1ccc(-c2c(Cl)cc(NC(=O)Cc3ccc(CC(=O)O)cc3)cc2Cl)cc1C#N [Example 25, 2-(4-(2-((2,6-Dichloro-3′-cyano-4′-isobutyl-[1,1′-biphenyl]-4-yl)amino)-2-oxoethyl)phenyl)acetic acid]
10 to 50	CC(C)CC(=O)Nc1cc(Cl)c(-c2ccc(CC(C)C)c(C#N)c2)c(Cl)c1 [Example 4, N-(2,6-dichloro-3′-cyano-4′-isobutyl-[1,1′-biphenyl]-4-yl)-3-methylbutanamide]
10 to 50	CC(C)Cc1ccc(-c2c(Cl)cc(NCCc3ccc(S(C)(=O)=O)cc3)cc2Cl)cc1C#N [Example 61, 2′,6′-Dichloro-4-isobutyl-4′-((4-(methylsulfonyl)phenethyl)amino)-[1,1′-biphenyl]-3-carbonitrile]
10 to 50	CC(C)Cc1ccc(-c2c(Cl)cc(NC(=O)Cc3ccc(=O)[nH]c3)cc2Cl)cc1C#N [Example 8, N-(2,6-Dichloro-3′-cyano-4′-isobutyl-[1,1′-biphenyl]-4-yl)-2-(6-oxo-1,6-dihydropyridin-3-yl)acetamide]
10 to 50	CC(C)Cc1ccc(-c2c(Cl)cc(NC(=O)Cc3cccnc3)cc2Cl)cc1C#N [Example 14, N-(2,6-Dichloro-3′-cyano-4′-isobutyl-[1,1′-biphenyl]-4-yl)-2-(pyridin-3-yl)acetamide]
50 to 100	CC(C)Cc1ccc(-c2c(Cl)cc(NC(=O)c3ccccc3)cc2Cl)cc1C#N [Example 3, N-(2,6-Dichloro-3′-cyano-4′-isobutyl-[1,1′-biphenyl]-4-yl)benzamide]
10 to 50	CC(C)Cc1ccc(-c2c(Cl)cc(NC(=O)Cc3ccc(P(C)(C)=O)cc3)cc2Cl)cc1C#N [Example 23, N-(2,6-Dichloro-3′-cyano-4′-isobutyl-[1,1′-biphenyl]-4-yl)-2-(4-(dimethylphosphoryl)phenyl)acetamide]
10 to 50	CC(C)Cc1ccc(-c2c(Cl)cc(NC(=O)Cc3ccc(C#N)cc3)cc2Cl)cc1C#N [Example 10, 2-(4-Cyanophenyl)-N-(2,6-dichloro-3′-cyano-4′-isobutyl-[1,1′-biphenyl]-4-yl)acetamide]
50 to 100	CC(C)Cc1ccc(-c2c(Cl)cc(C(=O)NCc3ccc(S(C)(=O)=O)cc3)cc2Cl)cc1C#N [Example 48, 2,6-Dichloro-3′-cyano-4′-isobutyl-N-(4-(methylsulfonyl)benzyl)-[1,1′-biphenyl]-4-carboxamide]
